Data set [1] has as its system mouse model of oxygen-induced retinopathy. Briefly: oxygen-induced retinopathy, retinal microvessel staining analysis. It counts as in vivo, C57BL6/J mice. Conditions: single intravitreal injection. How it is done: A. Modelling of a mouse model of oxygen-induced retinopathy, and the schematic diagram of treatment. C57BL6/J mice were cultured in 75% hyperoxia for 5 consecutive days starting from postnatal day 7, and treated by a single intravitreal administration of the drug on postnatal day 12, and then transferred to normal air atmosphere until day 17 for retinal sampling and analysis. P0, P7, P12, and P17 in the panel represent mice on postnatal days 0, 7, 12, and 17, respectively.
B. Representative diagram of the reduction of pathological avascular areas in the mouse retina after the treatment by intravitreal injection of A13bGa1. Mouse retinal microvessels were labelled by IB4 staining for the central avascular area analysis, wherein the green fluorescence represents the IB4-labelled microvascular areas, and the avascular areas are circled with white markers in the panel.
C. Statistical results of the retina pathological avascular areas after treatment of different groups of mice. […] The statistics in the panel are the quantitative results of the ischemic areas in the retinas of each sample compared with that of the VEH control group after the areas were taken as the means, and the error bar is a standard deviation. […]

Data set [2] concerns platelets in peripheral blood. Briefly: in vivo platelet toxicity test, single intraperitoneal injection. The settings on record: FIG. 4A. The arrangement: species or system C57 mice. An excerpt: A. Results of the platelet counts in peripheral blood on days 1, 3, 5, 8, and 10 after a single intraperitoneal injection of different doses of the given drug. Each dot in the panel represents the count of platelets detected in 1 mouse at that time point (n=4 mice); A13 represents the parent compound A1331852 administration group, and A13bGa1 represents the prodrug obtained after the β-gal modification of A13, and mpk represents the milligram dose per kilogram of the body weight. There were three different dose groups of 2, 5, and 20 mg/kg for both A13 and A13bGa1 administration. The dashed line in the panel indicates the mean value of the platelet counts of the mice in the control single vehicle administration group.
In Vivo Platelet Toxicity Test
A single administration of A13 or A13bG was performed. Female 5-6 week old C57 mice were treated with a single intraperitoneal injection. A13 and A13bG were administered in three different dose groups of 2, 5, and 20 mg/kg. Approximately 50 μl of blood was collected from each mouse at different time points into the EDTA tubes (RAM Scientific) by means of inner canthal blood extraction, and analyzed using a haematology analyzer for a blood routine examination and a platelet counting. Multiple administrations of A13 or A13bG were performed. Female 5-6 week old C57 mice were treated with multiple intraperitoneal injections. A13 and A13bG were administered in three different dose groups of 2, 5 and 20 mg/kg, three consecutive days per week, followed by a 4-day withdrawal for 3 weeks. […]
For a blood routine examination, 50 μl of fresh blood was collected from each mouse and immediately mixed with EDTA. Blood samples were analyzed by Celltac Alpha MEK-6400 series haematology analyzer (Nihon Kohden, MEK-6400). Data were expressed as the number of different blood cells or platelets per μl of blood. […] A 200 μl of serum was aliquoted and analyzed for alanine aminotransferase (ALT), aspartate aminotransferase (AST), uric acid (UA), and creatinine (CREA) by a chemistry analyzer (Mindray, BS-350E).

Data set [3] relates to senescent cells (HEF, HELF, A549, MRC5, BJ, HUVEC). Briefly: in vitro killing of senescent cells, multiple cell models (CCK-8). The settings on record: FIG. 3B-3G. It counts as cell-based, human. An excerpt:
(§1) Induction of the Cellular Senescence

The test system of data set [4] is HUVEC cells (human umbilical vein endothelial cell line). Briefly: in vitro killing of induced senescent HUVEC cells (CCK-8). Conditions: vascular endothelial-derived, FIG. 3F. It counts as cell-based.
Description: as §1

[5] abbreviates: single intraperitoneal administration, 2, 5, 20 mg/kg.

The record followed here is patent US20260345582A1, “PRODRUG FOR ANTI-AGING RELATED DISEASES AND USE METHOD THEREOF” (Beijing SunCell Bio-Medical Co., Ltd., priority 2022, published 2026).

`Cc1c(-c2ccc(N3CCc4cccc(C(=O)Nc5nc6ccccc6s5)c4C3)nc2C(=O)OCc2ccc(O[C@@H]3O[C@H](CO)[C@H](O)[C@H](O)[C@H]3O)c([N+](=O)[O-])c2)cnn1CC12CC3CC(CC(C3)C1)C2` [Compound A13bGa1]: in data set [1], the retinal oxygen-induced microangiopathy entry is “effectively improve the retinal oxygen-induced microangiopathy”. Moreover, the “area of the abnormal neovascular area in the retinas” value in data set [1] (50 ng and 100 ng, FIGS. 6D and 6E) is listed as “significantly reduced”. In data set [2] (setting [5]), the “platelet toxicity compared with the parent compound A13” value is given as “significantly less toxic to the platelets than the parent compound A13” and the platelet-destroying effect result was “strong platelet-destroying effect only at the higher dose of 20 mg/kg”. Further, the “effect on the magnitude of the platelet changes in peripheral blood compared with A13” value in data set [2] (single intraperitoneal administration) is listed as “significantly less than that of A13”. Further, in data set [3], the “overall killing activity on the senescent cells compared with the parent compound A13” value is “somewhat reduced compared with that of the parent compound A13”. For the same molecule, the “killing of the senescent cells, efficiency and selectivity” value in data set [4] was “highly efficient and selective in killing the senescent cells”.
